Results published in patent US20250136606A1, “MODULATORS OF TRPML, THEIR COMPOSITIONS AND METHODS OF USE” (Caraway Therapeutics, Inc., priority 2021, published 2025).

Experiments:
Assay type in all cases: cell-based
TRPML3 = biological target: T1, TRPML3 (Homo sapiens, UniProt Q8TDD5); assay: Fluorescent TRPML3 assay (performed as for TRPML1, substituting the TRPML3 subtype)
T1 construct: expressed in transfected cells
T1 sequence (Q8TDD5 1-553): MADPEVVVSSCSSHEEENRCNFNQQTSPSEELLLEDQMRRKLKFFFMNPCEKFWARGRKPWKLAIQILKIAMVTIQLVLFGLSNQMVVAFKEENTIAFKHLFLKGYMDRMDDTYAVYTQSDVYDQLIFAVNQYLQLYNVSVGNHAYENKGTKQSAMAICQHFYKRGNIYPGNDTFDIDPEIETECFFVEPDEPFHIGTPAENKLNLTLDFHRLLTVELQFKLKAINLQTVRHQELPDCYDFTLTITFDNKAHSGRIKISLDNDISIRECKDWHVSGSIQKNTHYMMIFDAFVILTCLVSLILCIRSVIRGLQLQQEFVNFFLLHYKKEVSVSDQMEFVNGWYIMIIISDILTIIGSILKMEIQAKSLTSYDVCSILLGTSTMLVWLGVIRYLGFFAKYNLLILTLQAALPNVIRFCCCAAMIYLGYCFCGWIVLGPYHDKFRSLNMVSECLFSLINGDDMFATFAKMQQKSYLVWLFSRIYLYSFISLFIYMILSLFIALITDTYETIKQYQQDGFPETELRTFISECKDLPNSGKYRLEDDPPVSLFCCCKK
Summary of the method: (§1)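 Doxycycline-induced (0.5 ug/mL) HEK-293 Trex cells stably expressing surface-directed mutant channel were loaded with 1 micromolar Fluo4-AM, resuspended in Ringer's with 10 mM calcium and added to compound plates. Fluorescence (ex 480, em 540 nm) gave percent activity versus on-plate controls; EC50 by non-linear regression.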

TRPML1 = TRPML1 (Homo sapiens, UniProt Q9GZU1); assay: Fluorescent TRPML1 assay (Fluo4-AM calcium fluorescence in doxycycline-induced HEK-293 Trex cells)
Sequence of TRPML1 (Q9GZU1 whole entry L15A/L16A/L577A/L578A, form open): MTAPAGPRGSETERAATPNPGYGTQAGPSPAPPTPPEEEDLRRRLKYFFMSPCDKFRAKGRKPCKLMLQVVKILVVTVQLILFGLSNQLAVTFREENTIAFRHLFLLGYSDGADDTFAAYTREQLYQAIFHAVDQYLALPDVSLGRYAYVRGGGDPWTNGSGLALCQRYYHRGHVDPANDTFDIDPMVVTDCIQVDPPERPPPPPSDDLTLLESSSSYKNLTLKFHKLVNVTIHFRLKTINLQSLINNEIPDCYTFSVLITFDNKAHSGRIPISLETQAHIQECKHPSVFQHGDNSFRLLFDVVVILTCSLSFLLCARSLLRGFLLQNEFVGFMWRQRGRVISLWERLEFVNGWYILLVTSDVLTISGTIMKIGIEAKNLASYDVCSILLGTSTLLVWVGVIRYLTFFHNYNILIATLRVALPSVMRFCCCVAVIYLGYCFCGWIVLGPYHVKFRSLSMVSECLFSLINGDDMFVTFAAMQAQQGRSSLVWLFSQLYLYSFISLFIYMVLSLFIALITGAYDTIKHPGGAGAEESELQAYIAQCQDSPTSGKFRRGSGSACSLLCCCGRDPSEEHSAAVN
Summary of the method: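 First, expression of surface-targeted mutant human TRPML1 is induced in HEK-293 Trex cells with 0.5 ug/mL doxycycline the day before. Next, cells take up 1 micromolar Fluo4-AM in Ringer's with 0.1% Pluronic. Finally, they are added to compounds (6 nanomolar–20 micromolar final) in 10 mM calcium Ringer's and fluorescence is read.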

TRPML2 = biological target: T2, TRPML2 (Homo sapiens, UniProt Q8IZK6); assay: Fluorescent TRPML2 assay (performed as for TRPML1, substituting the TRPML2 subtype)
T2 construct: expressed in transfected cells
T2 sequence (Q8IZK6 1-566): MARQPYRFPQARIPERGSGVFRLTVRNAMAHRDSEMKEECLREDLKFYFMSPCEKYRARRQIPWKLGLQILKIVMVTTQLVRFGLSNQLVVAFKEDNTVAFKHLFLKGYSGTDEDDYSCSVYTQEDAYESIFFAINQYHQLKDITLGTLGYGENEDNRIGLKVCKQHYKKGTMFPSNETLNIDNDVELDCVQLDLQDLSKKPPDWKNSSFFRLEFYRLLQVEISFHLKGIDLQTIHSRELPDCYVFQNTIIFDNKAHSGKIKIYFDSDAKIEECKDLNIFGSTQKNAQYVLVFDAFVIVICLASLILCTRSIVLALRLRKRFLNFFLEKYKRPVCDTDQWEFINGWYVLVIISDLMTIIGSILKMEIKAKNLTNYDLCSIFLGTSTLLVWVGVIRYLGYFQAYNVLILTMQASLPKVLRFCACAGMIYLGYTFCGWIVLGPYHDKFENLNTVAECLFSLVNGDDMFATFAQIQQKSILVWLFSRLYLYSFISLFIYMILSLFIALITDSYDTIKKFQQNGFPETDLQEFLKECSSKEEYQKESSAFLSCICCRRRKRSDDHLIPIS
Summary of the method: as §1

Row | Structure (SMILES) | EC50 (TRPML3) [nM] | EC50 (TRPML1) [nM] | EC50 (TRPML2) [nM]
1 | C[C@@H]1CN(c2ncnc3c2c(C(F)(F)F)cn3C2CCCCC2)[C@@H](C)CN1C(=O)OC(C)(C)C [Compound 625, tert-butyl (2R,5S)-4-(7-cyclohexyl-5-(trifluoromethyl)-7H-pyrrolo[2,3-d]pyrimidin-4-yl)-2,5-dimethylpiperazine-1-carboxylate] | > 2000 | 100 to 500 | > 2000
2 | C[C@@H]1CN(c2ncnc3c2c(C(F)(F)F)cn3C2CCCC(C#N)C2)[C@@H](C)CN1C(=O)OC(C)(C)C (stereo partly drawn) [Compound 629, tert-butyl (2R,5S)-4-(7-(3-cyanocyclohexyl)-5-(trifluoromethyl)-7H-pyrrolo[2,3-d]pyrimidin-4-yl)-2,5-dimethylpiperazine-1-carboxylate] | 100 to 500 | 500 to 2000 | > 2000
3 | C[C@@H]1CN(c2ncnc3c2c(C(F)F)cn3C2CCCC(C#N)C2)[C@@H](C)CN1C(=O)OC(C)(C)C (stereo partly drawn) [Compound 633, tert-butyl (2R,5S)-4-(7-(3-cyanocyclohexyl)-5-(difluoromethyl)-7H-pyrrolo[2,3-d]pyrimidin-4-yl)-2,5-dimethylpiperazine-1-carboxylate] | 500 to 2000 | 500 to 2000 | > 2000
4 | C[C@@H]1CN(c2ncnc3c2c(N2CCC2)cn3-c2cccc(F)c2)[C@@H](C)CN1C(=O)OC(C)(C)C [Compound 635, tert-butyl (2R,5S)-4-(5-(azetidin-1-yl)-7-(3-fluorophenyl)-7H-pyrrolo[2,3-d]pyrimidin-4-yl)-2,5-dimethylpiperazine-1-carboxylate] | 100 to 500 | < 100 | 100 to 500
5 | COc1ccnc(-n2cc(C3CC3)c3c(N4C[C@@H](C)N(C(=O)OC(C)(C)C)C[C@@H]4C)ncnc32)c1 [Compound 642, tert-butyl (2R,5S)-4-(5-cyclopropyl-7-(4-methoxypyridin-2-yl)-7H-pyrrolo[2,3-d]pyrimidin-4-yl)-2,5-dimethylpiperazine-1-carboxylate] | 100 to 500 | 100 to 500 | 500 to 2000
6 | C[C@@H]1CN(c2ncnc3c2c(C2CC2)cn3-c2ccccn2)[C@@H](C)CN1C(=O)OC(C)(C)C [Compound 643, tert-butyl (2R,5S)-4-(5-cyclopropyl-7-(pyridin-2-yl)-7H-pyrrolo[2,3-d]pyrimidin-4-yl)-2,5-dimethylpiperazine-1-carboxylate] | 100 to 500 | 100 to 500 | 500 to 2000
7 | Cc1ccnc(-n2cc(C3CC3)c3c(N4C[C@@H](C)N(C(=O)OC(C)(C)C)C[C@@H]4C)ncnc32)c1 [Compound 644, tert-butyl (2R,5S)-4-(5-cyclopropyl-7-(4-methylpyridin-2-yl)-7H-pyrrolo[2,3-d]pyrimidin-4-yl)-2,5-dimethylpiperazine-1-carboxylate] | 100 to 500 | 100 to 500 | 500 to 2000
8 | C[C@@H]1CN(c2ncnc3c2c(C2CCC2)cn3-c2cccc(C(F)(F)F)c2)[C@@H](C)CN1C(=O)OC(C)(C)C [Compound 645, tert-butyl (2R,5S)-4-(5-cyclobutyl-7-(3-(trifluoromethyl)phenyl)-7H-pyrrolo[2,3-d]pyrimidin-4-yl)-2,5-dimethylpiperazine-1-carboxylate] | 100 to 500 | 100 to 500 | 100 to 500
9 | C[C@@H]1CN(c2ncnc3c2c(C2CCC2)cn3-c2cccc(F)c2)[C@@H](C)CN1C(=O)OC(C)(C)C [Compound 646, tert-butyl (2R,5S)-4-(5-cyclobutyl-7-(3-fluorophenyl)-7H-pyrrolo[2,3-d]pyrimidin-4-yl)-2,5-dimethylpiperazine-1-carboxylate] | 100 to 500 | 500 to 2000 | > 2000
10 | C[C@@H]1CN(c2ncnc3c2c(C2CCC2)cn3-c2cccc(Cl)c2)[C@@H](C)CN1C(=O)OC(C)(C)C [Compound 647, tert-butyl (2R,5S)-4-(7-(3-chlorophenyl)-5-cyclobutyl-7H-pyrrolo[2,3-d]pyrimidin-4-yl)-2,5-dimethylpiperazine-1-carboxylate] | 500 to 2000 | 100 to 500 | 500 to 2000

Next, values leading:

Row | EC50 (TRPML3) [nM] | EC50 (TRPML1) [nM] | EC50 (TRPML2) [nM] | Structure (SMILES)
11 | < 100 | < 100 | 100 to 500 | C[C@@H]1CN(c2ncnc3c2c(CC(F)(F)F)cn3-c2cc(C#N)ncn2)[C@@H](C)CN1C(=O)OC(C)(C)C [Compound 618, tert-butyl (2R,5S)-4-(7-(6-cyanopyrimidin-4-yl)-5-(2,2,2-trifluoroethyl)-7H-pyrrolo[2,3-d]pyrimidin-4-yl)-2,5-dimethylpiperazine-1-carboxylate]
12 | < 100 | < 100 | 500 to 2000 | C[C@@H]1CN(c2ncnc3c2c(CC(F)(F)F)cn3-c2cc(C#N)ccn2)[C@@H](C)CN1C(=O)OC(C)(C)C [Compound 619]
13 | < 100 | < 100 | 100 to 500 | C[C@@H]1CN(c2nccc3c2c(C(F)(F)F)cn3-c2cc(C#N)ccn2)[C@@H](C)CN1C(=O)OC(C)(C)C [Compound 620, tert-butyl (2R,5S)-4-(1-(4-cyanopyridin-2-yl)-3-(trifluoromethyl)-1H-pyrrolo[3,2-c]pyridin-4-yl)-2,5-dimethylpiperazine-1-carboxylate]
14 | < 100 | < 100 | 500 to 2000 | [2H]C([2H])([2H])C(OC(=O)N1C[C@H](C)N(c2nccc3c2c(C(F)(F)F)cn3-c2cc(C#N)ccn2)C[C@H]1C)(C([2H])([2H])[2H])C([2H])([2H])[2H] [Compound 623, 2-(methyl-d3)propan-2-yl-1,1,1,3,3,3-d6 (2R,5S)-4-(1-(4-cyanopyridin-2-yl)-3-(trifluoromethyl)-1H-pyrrolo[3,2-c]pyridin-4-yl)-2,5-dimethylpiperazine-1-carboxylate]
15 | 100 to 500 | 100 to 500 | > 2000 | C[C@@H]1CN(c2nccc3c2c(C(F)F)cn3-c2cc(C#N)ccn2)[C@@H](C)CN1C(=O)OC(C)(C)C [Compound 624, tert-butyl (2R,5S)-4-(1-(4-cyanopyridin-2-yl)-3-(difluoromethyl)-1H-pyrrolo[3,2-c]pyridin-4-yl)-2,5-dimethylpiperazine-1-carboxylate]
16 | 100 to 500 | 100 to 500 | > 2000 | C[C@@H]1CN(c2ncnc3c2c(C(F)F)cn3C2CCCCC2)[C@@H](C)CN1C(=O)OC(C)(C)C [Compound 627, tert-butyl (2R,5S)-4-(7-cyclohexyl-5-(difluoromethyl)-7H-pyrrolo[2,3-d]pyrimidin-4-yl)-2,5-dimethylpiperazine-1-carboxylate]
17 | < 100 | < 100 | < 100 | C[C@H]1CN(C(=O)OC(C)(C)C)CCN1c1ncnc2c1c(N1CCC1)cn2-c1cccc(F)c1 [Compound 636, tert-butyl (S)-4-(5-(azetidin-1-yl)-7-(3-fluorophenyl)-7H-pyrrolo[2,3-d]pyrimidin-4-yl)-3-methylpiperazine-1-carboxylate]
18 | < 100 | < 100 | 100 to 500 | C[C@H]1CN(C(=O)OC(C)(C)C)CCN1c1nccc2c1c(N1CCC1)cn2-c1cccc(F)c1 [Compound 637, tert-butyl (S)-4-(3-(azetidin-1-yl)-1-(3-fluorophenyl)-1H-pyrrolo[3,2-c]pyridin-4-yl)-3-methylpiperazine-1-carboxylate]
19 | < 100 | < 100 | 100 to 500 | C[C@@H]1CN(c2nccc3c2c(N2CCC2)cn3-c2cccc(F)c2)[C@@H](C)CN1C(=O)OC(C)(C)C [Compound 638]
20 | < 100 | < 100 | < 100 | C[C@H]1CN(C(=O)OC(C)(C)C)CCN1c1ncnc2c1c(C1CCC1)cn2-c1cccc(F)c1 [Compound 641, tert-butyl (S)-4-(5-cyclobutyl-7-(3-fluorophenyl)-7H-pyrrolo[2,3-d]pyrimidin-4-yl)-3-methylpiperazine-1-carboxylate]
